One test has as its target T1, cIAP-1 BIR-3 (Homo sapiens, UniProt Q13490).
T1 construct: 40 nM of the respective IAP BIR3
Description: Fluorescence polarization binding to cIAP-1 BIR-3 with labeled peptide AbuRPF-K(5-Fam)-NH2. As to conditions: cIAP-1 BIR-3, 40 nM BIR3, 5 nM labeled peptide, 15 min RT, pH 7.5; read-out: cIAP1, nM (binding affinity KD, as range). The protocol:
(§1) The binding affinities of the compounds are reported as a KD value (μM). Briefly, various concentrations of test peptides were mixed with 5 nM of the fluorescently labeled peptide (i.e., a mutated N-terminal Smac peptide-AbuRPF-K(5-Fam)-NH2) and 40 nM of the respective IAP BIR3 for 15 min at RT in […] of 0.1M Potassium Phosphate buffer, pH 7.5 containing […] bovine g-globulin. Following incubation, the polarization values (mP) were measured on a Victor2V™ (available from PerkinElmer® Life Sciences) using a 485 nm excitation filter and a 520 nm emission filter. The reported binding affinities (KD values) are supplied as ranges (A=<0.1 μM, B=0.1 μM to 1 μM, C=>1 μM to 10 μM, D=>10 μM).

In the next test the test system is SK-OV-3 cells. Description: MTT cell growth inhibition assay in ovarian cancer cell line SK-OV-3. It counts as cell-based. As to conditions: Homo sapiens, 72 hrs incubation, read-out: SKOV3, nM (CC50, concentration giving 50% cell survival, as range). The protocol:
Compounds of the invention also were tested for their ability to inhibit the growth of an ovarian cancer cell line, SK-OV-3. A known assay previously used for measuring cell growth (as described in Hansen, M. B., Nielsen, S. E., and Berg, K. (1989) J. Immunol. Methods 119, 203-210 and incorporated herein by reference in its entirety) was used. Briefly, SK-OV-3 cells are seeded in 96-well plates in McCoy's medium containing 10% fetal bovine serum albumin (5,000 per well) and incubated overnight at 37° C. The next day, test compounds are added at various concentrations (0.003-10 μM) and the plates are incubated at 37° C. for an additional 72 hrs. This incubation time was considered to be optimal for measuring inhibitory effects of the different compounds tested. 50 microliters of 5 mg/mL MTT reagent is added to each well and the plates are incubated at 37° C. for another three (3) hours. At the end of the three (3) hour incubation period, 50 microliters of DMSO is added to each well to dissolve cells and the optical density (OD) of the wells is measured with a microplate reader (Victor^2 1420™, Wallac, Finland) at 535 nm. Cell survival (CS) was calculated using the following equation: CS=(OD treated well/mean OD control wells)×100%.
The CC50 (reported in the following tables), is defined as the drug concentration that results in 50% cell survival (CS), and is derived by calculating the point where the dose-response curve crosses the 50% CS point using GraphPad Prism® graphing software. The reported CC50 values are supplied as ranges (A=<0.1 μM, B=0.1 μM to 1 μM, C=>1 μM to 10 μM, D=>10 μM).

For another test, the target named is T2, XIAP BIR-3 (Homo sapiens, UniProt P98170).
T2 construct: 40 nM of the respective IAP BIR3
Description: Fluorescence polarization binding to XIAP BIR-3 with labeled peptide AbuRPF-K(5-Fam)-NH2. As to conditions: XIAP BIR-3, 40 nM BIR3, 5 nM labeled peptide, 15 min RT, pH 7.5; read-out: XIAP, nM (binding affinity KD, as range). The protocol: as §1

T2 sequence (P98170 241-356 limits assumed): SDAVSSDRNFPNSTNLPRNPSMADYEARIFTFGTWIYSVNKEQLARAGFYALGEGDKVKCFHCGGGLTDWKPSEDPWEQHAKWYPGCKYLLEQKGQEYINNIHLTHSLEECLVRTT
T1 sequence (Q13490 253-363 limits assumed): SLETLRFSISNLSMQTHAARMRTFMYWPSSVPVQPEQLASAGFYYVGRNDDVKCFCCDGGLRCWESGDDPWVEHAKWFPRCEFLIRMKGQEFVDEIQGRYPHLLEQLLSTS

Turning to `CN[C@@H](C)C(=O)N[C@H](C(=O)N1CC[C@@H]2[C@H]1[C@@H](C(=O)NCC1CCCCC1)CN2S(C)(=O)=O)C1CCCCC1` [Example 19, 4-[2-Cyclohexyl-2-(2-methylamino-propionylamino)-acetyl]-1-methanesulfonyl-octahydro-pyrrolo[3,2-b]pyrrole-3-carboxylic acid cyclohexylmethyl-amide], the Kd on cIAP-1 BIR-3 and on XIAP BIR-3 was less than 100 nM each time. Moreover, the CC50 with SK-OV-3 cells is less than 100 nM.
Regarding `CN[C@@H](C)C(=O)N[C@H](C(=O)N1CC[C@@H]2[C@H]1[C@@H](C(=O)Nc1cccc3cnccc13)CN2S(C)(=O)=O)C(C)(C)C` [Example 44, 4-[3,3-Dimethyl-2-(2-methylamino-propionylamino)-butyryl]-1-methanesulfonyl-octahydro-pyrrolo[3,2-b]pyrrole-3-carboxylic acid isoquinolin-5-ylamide], the results for the Kd on cIAP-1 BIR-3 and on XIAP BIR-3 were less than 100 nM and 100 to 1000 nM, respectively. For the same molecule, in the test with SK-OV-3 cells, the CC50 is less than 100 nM.
On to `CNC(=O)N1C[C@H](C(=O)NCc2ccc(F)cc2)[C@@H]2[C@H]1CCN2C(=O)[C@@H](NC(=O)[C@H](C)NC)C(C)(C)C` [Example 41, 4-[3,3-Dimethyl-2-(2-methylamino-propionylamino)-butyryl]-hexahydro-pyrrolo[3,2-b]pyrrole-1,3-dicarboxylic acid 3-(4-fluoro-benzylamide) 1-methylamide], for which the Kd on cIAP-1 BIR-3 and at XIAP BIR-3 was less than 100 nM each time. In addition, the CC50 in the test on SK-OV-3 cells was less than 100 nM.
As for `CN[C@@H](C)C(=O)N[C@H](C(=O)N1CC[C@@H]2[C@H]1[C@@H](C(=O)NCc1ccc(F)cc1)CN2S(C)(=O)=O)C(C)(C)C` [Example 21, 4-[3,3-Dimethyl-2-(2-methylamino-propionylamino)-butyryl]-1-methanesulfonyl-octahydro-pyrrolo[3,2-b]pyrrole-3-carboxylic acid 4-fluoro-benzylamide], the Kd at cIAP-1 BIR-3 and at XIAP BIR-3 was less than 100 nM in each case. Also, the CC50 with SK-OV-3 cells is less than 100 nM.
As to `CN[C@@H](C)C(=O)N[C@H](C(=O)N1CC[C@@H]2[C@H]1[C@@H](C(=O)Nc1cccc3ccccc13)CN2S(C)(=O)=O)C1CCCCC1` [Example 17, 4-[2-Cyclohexyl-2-(2-methylamino-propionylamino)-acetyl]-1-methanesulfonyl-octahydro-pyrrolo[3,2-b]pyrrole-3-carboxylic acid naphthalen-1-ylamide], the equilibrium dissociation constant (Kd) at cIAP-1 BIR-3 and on XIAP BIR-3 was less than 100 nM throughout. Further, the CC50 with SK-OV-3 cells is less than 100 nM.
On to `CNC(=O)N1C[C@H](C(=O)Nc2cccc3ccccc23)[C@@H]2[C@H]1CCN2C(=O)[C@@H](NC(=O)[C@H](C)NC)C(C)(C)C` [Example 42, 4-[3,3-Dimethyl-2-(2-methylamino-propionylamino)-butyryl]-hexahydro-pyrrolo[3,2-b]pyrrole-1,3-dicarboxylic acid 1-methylamide 3-naphthalen-1-ylamide], for which the Kd on cIAP-1 BIR-3 and on XIAP BIR-3 was less than 100 nM each time. Moreover, the CC50 in the test with SK-OV-3 cells was less than 100 nM.
Turning to `CN[C@@H](C)C(=O)N[C@H](C(=O)N1CC[C@@H]2[C@H]1[C@@H](C(=O)N[C@@H](C)c1ccccc1)CN2S(C)(=O)=O)C1CCCCC1` [Example 11, 4-[2-Cyclohexyl-2-(2-methylamino-propionylamino)-acetyl]-1-methanesulfonyl-octahydro-pyrrolo[3,2-b]pyrrole-3-carboxylic acid (1-phenyl-ethyl)-amide], the Kd on cIAP-1 BIR-3 and on XIAP BIR-3 was less than 100 nM each time. For the same molecule, in the test on SK-OV-3 cells, the CC50 lay within 100 to 1000 nM.
Take `CN[C@@H](C)C(=O)N[C@H](C(=O)N1CC[C@@H]2[C@H]1[C@@H](C(=O)Nc1cccc3ccccc13)CN2S(C)(=O)=O)C(C)(C)C` [Example 24, 4-[3,3-Dimethyl-2-(2-methylamino-propionylamino)-butyryl]-1-methanesulfonyl-octahydro-pyrrolo[3,2-b]pyrrole-3-carboxylic acid naphthalen-1-ylamide]: the Kd on cIAP-1 BIR-3 and on XIAP BIR-3 was less than 100 nM throughout. Further, in the test with SK-OV-3 cells, the CC50 was less than 100 nM.
In the case of `CN[C@@H](C)C(=O)N[C@H](C(=O)N1CC[C@@H]2[C@H]1[C@@H](C(=O)Nc1cccc3ccccc13)CN2C(C)=O)C(C)(C)C` [Example 37, 1-Acetyl-4-[3,3-dimethyl-2-(2-methylamino-propionylamino)-butyryl]-octahydro-pyrrolo[3,2-b]pyrrole-3-carboxylic acid naphthalen-1-ylamide], the Kd at cIAP-1 BIR-3 and on XIAP BIR-3 was less than 100 nM throughout. In the test on SK-OV-3 cells, the CC50 was less than 100 nM.
Regarding `CN[C@@H](C)C(=O)N[C@H](C(=O)N1CC[C@@H]2[C@H]1[C@@H](C(=O)Nc1cccc3cccnc13)CN2S(C)(=O)=O)C(C)(C)C` [Example 46, 4-[3,3-Dimethyl-2-(2-methylamino-propionylamino)-butyryl]-1-methanesulfonyl-octahydro-pyrrolo[3,2-b]pyrrole-3-carboxylic acid quinolin-8-ylamide], the Kd at cIAP-1 BIR-3 is less than 100 nM; on XIAP BIR-3, 100 to 1000 nM. The CC50 with SK-OV-3 cells was less than 100 nM.
`CN[C@@H](C)C(=O)N[C@H](C(=O)N1CC[C@@H]2[C@H]1[C@@H](C(=O)Nc1ccc3ncccc3c1)CN2S(C)(=O)=O)C(C)(C)C` [Example 50, 4-[3,3-Dimethyl-2-(2-methylamino-propionylamino)-butyryl]-1-methanesulfonyl-octahydro-pyrrolo[3,2-b]pyrrole-3-carboxylic acid quinolin-6-ylamide]: the Kd is less than 100 nM at cIAP-1 BIR-3 and 100 to 1000 nM on XIAP BIR-3. The CC50 with SK-OV-3 cells is less than 100 nM.
`CN[C@@H](C)C(=O)N[C@H](C(=O)N1CC[C@@H]2[C@H]1[C@@H](C(=O)N[C@@H]1CCc3ccccc31)CN2S(C)(=O)=O)C1CCCCC1` [Example 14, 4-[2-Cyclohexyl-2-(2-methylamino-propionylamino)-acetyl]-1-methanesulfonyl-octahydro-pyrrolo[3,2-b]pyrrole-3-carboxylic acid indan-1-ylamide]: the Kd at cIAP-1 BIR-3 was less than 100 nM; at XIAP BIR-3, 100 to 1000 nM. Further, in the test on SK-OV-3 cells, the CC50 was less than 100 nM.
Consider `CN[C@@H](C)C(=O)N[C@H](C(=O)N1CC[C@@H]2[C@H]1[C@@H](C(=O)Nc1cccc3ccccc13)CN2C(=O)CNC(=O)C(=O)NCC(=O)N1C[C@H](C(=O)Nc2cccc3ccccc23)[C@@H]2[C@H]1CCN2C(=O)[C@@H](NC(=O)[C@H](C)NC)C(C)(C)C)C(C)(C)C` [Example 53, N,N′-Bis-{2-[4-[3,3-dimethyl-2-(2-methylamino-propionylamino)-butyryl]-3-(naphthalen-1-ylcarbamoyl)-hexahydro-pyrrolo[3,2-b]pyrrol-1-yl]-2-oxo-ethyl}-oxalamide], for which the dissociation constant (Kd) on cIAP-1 BIR-3 and at XIAP BIR-3 was less than 100 nM each time. Besides, the CC50 in the test on SK-OV-3 cells was less than 100 nM.
For the molecule `CN[C@@H](C)C(=O)N[C@H](C(=O)N1CC[C@@H]2[C@H]1[C@@H](C(=O)N[C@H](C)C1CCCCC1)CN2S(C)(=O)=O)C(C)(C)C` [Example 29, 4-[3,3-Dimethyl-2-(2-methylamino-propionylamino)-butyryl]-1-methanesulfonyl-octahydro-pyrrolo[3,2-b]pyrrole-3-carboxylic acid (1R-cyclohexyl-ethyl)-amide], the Kd at cIAP-1 BIR-3 is less than 100 nM; on XIAP BIR-3, 1000 to 10000 nM. The CC50 in the test with SK-OV-3 cells was 1000 to 10000 nM.

The values are drawn from patent publication US8481495B2 (TetraLogic Pharmaceuticals Corporation, priority 2009, dated 2013).
